Test results as given in ChEMBL document CHEMBL6153147 (J Med Chem, 2025).

Key:
[1] = molecular target: Serine/threonine-protein kinase PLK3 (Homo sapiens, UniProt Q9H4B4); assay: Inhibition of human PLK3 using ATF2 as substrate incubated for 40 mins in presence of [gamma-33P]ATP/Mg acetate by scintillation counting analysis
[2] = Selectivity ratio of IC50 for inhibition of human PLK2 using ATF2 as substrate to IC50 for inhibition of human PLK1 using ATF2 as substrate
SW-620 = assay: cells; conditions: Homo sapiens
HL-60 = assay: cells; conditions: Homo sapiens
KG-1 = assay: cells; conditions: Homo sapiens
PC-9 = assay: cells; conditions: Homo sapiens
[3] = molecular target: Serine/threonine-protein kinase PLK1 (Homo sapiens, UniProt P53350); assay: Inhibition of human PLK1 using ATF2 as substrate incubated for 40 mins in presence of [gamma-33P]ATP/Mg acetate by scintillation counting analysis
NCI-H460 = assay: cells; conditions: Homo sapiens
A549 = assay: cells; conditions: Homo sapiens
CCRF-CEM = assay: cells; conditions: Homo sapiens
[4] = molecular target: Serine/threonine-protein kinase PLK2 (Homo sapiens, UniProt Q9NYY3); assay: Inhibition of human PLK2 using ATF2 as substrate incubated for 40 mins in presence of [gamma-33P]ATP/Mg acetate by scintillation counting analysis
[5] = Selectivity ratio of IC50 for inhibition of human PLK3 using ATF2 as substrate to IC50 for inhibition of human PLK1 using ATF2 as substrate
K562 = assay: cells; conditions: Homo sapiens
[6] = Half life in C57BL/6 mouse at 10 mg/kg, po measured for 0.5 to 12 htr by LC-MS/MS analysis; type: ADME, organism-based; conditions: in vivo, time 0.5-12 hrs
[7] = C0 in C57BL/6 mouse at 1 mg/kg, iv measured for 0.5 to 12 htr by LC-MS/MS analysis; type: ADME, organism-based; conditions: in vivo, time 0.5-12 hrs
[8] = MRT (0 to t) in C57BL/6 mouse at 10 mg/kg, po measured for 0.5 to 12 htr by LC-MS/MS analysis; type: ADME, organism-based; conditions: in vivo, time 0.5-12 hrs
[9] = Tmax in C57BL/6 mouse at 10 mg/kg, po measured for 0.5 to 12 htr by LC-MS/MS analysis; type: ADME, organism-based; conditions: in vivo, time 0.5-12 hrs
[10] = Cmax in C57BL/6 mouse at 10 mg/kg, po measured for 0.5 to […] htr by LC-MS/MS analysis; type: ADME, organism-based; conditions: in vivo, time 0.5-12 hrs
[11] = AUC (0 to t) in C57BL/6 mouse at 1 mg/kg, iv measured for 0.5 to […] htr by LC-MS/MS analysis; type: ADME, organism-based; conditions: in vivo, time 0.5-12 hrs
[12] = Half life in C57BL/6 mouse at 1 mg/kg, iv measured for 0.5 to 12 htr by LC-MS/MS analysis; type: ADME, organism-based; conditions: in vivo, time 0.5-12 hrs
[13] = Oral bioavailability in C57BL/6 mouse at 10 mg/kg measured for 0.5 to […] htr by LC-MS/MS analysis; type: ADME, organism-based; conditions: in vivo, time 0.5-12 hrs
[14] = Cmax in C57BL/6 mouse at 1 mg/kg, iv measured for 0.5 to […] htr by LC-MS/MS analysis; type: ADME, organism-based; conditions: in vivo, time 0.5-12 hrs
[15] = Metabolic stability in mouse liver microsomes assessed as intrinsic clearance preincubated for 5 mins followed by NADPH addition by LC-MS/MS analysis; type: ADME, Microsome; conditions: read-out: CLH
[16] = Clearance in C57BL/6 mouse at 1 mg/kg, iv measured for 0.5 to […] htr by LC-MS/MS analysis; type: ADME, organism-based; conditions: in vivo, time 0.5-12 hrs
[17] = AUC (0 to infinity) in C57BL/6 mouse at 10 mg/kg, po measured for 0.5 to 12 htr by LC-MS/MS analysis; type: ADME, organism-based; conditions: in vivo, time 0.5-12 hrs
[18] = Tmax in C57BL/6 mouse at 1 mg/kg, iv measured for 0.5 to 12 htr by LC-MS/MS analysis; type: ADME, organism-based; conditions: in vivo, time 0.5-12 hrs
[19] = Metabolic stability in human liver microsomes assessed as intrinsic clearance preincubated for 5 mins followed by NADPH addition by LC-MS/MS analysis; type: ADME, Microsome; conditions: read-out: CLH
[20] = Metabolic stability in human liver microsomes assessed as intrinsic clearance in microsome measured per mg protein preincubated for 5 mins followed by NADPH addition by LC-MS/MS analysis; type: ADME; conditions: read-out: CLH
[21] = Metabolic stability in dog liver microsomes assessed as intrinsic clearance preincubated for 5 mins followed by NADPH addition by LC-MS/MS analysis; type: ADME, Canis lupus familiaris, Microsome; conditions: read-out: CLH
[22] = Metabolic stability in dog liver microsomes assessed as half life preincubated for 5 mins followed by NADPH addition by LC-MS/MS analysis; type: ADME, Canis lupus familiaris, Microsome
[23] = AUC (0 to t) in C57BL/6 mouse at 10 mg/kg, po measured for 0.5 to […] htr by LC-MS/MS analysis; type: ADME, organism-based; conditions: in vivo, time 0.5-12 hrs
[24] = Metabolic stability in dog liver microsomes assessed as intrinsic clearance in microsome measured per mg protein preincubated for 5 mins followed by NADPH addition by LC-MS/MS analysis; type: ADME, Canis lupus familiaris; conditions: read-out: CLH
[25] = AUC (0 to infinity) in C57BL/6 mouse at 1 mg/kg, iv measured for 0.5 to 12 htr by LC-MS/MS analysis; type: ADME, organism-based; conditions: in vivo, time 0.5-12 hrs
[26] = Metabolic stability in human liver microsomes assessed as half life preincubated for 5 mins followed by NADPH addition by LC-MS/MS analysis; type: ADME, Microsome
[27] = Metabolic stability in mouse liver microsomes assessed as half life preincubated for 5 mins followed by NADPH addition by LC-MS/MS analysis; type: ADME, Microsome
[28] = Volume of distribution at steady state in C57BL/6 mouse at 1 mg/kg, iv measured for 0.5 to 12 htr by LC-MS/MS analysis; type: ADME, organism-based; conditions: in vivo, time 0.5-12 hrs, read-out: Vdss
[29] = Metabolic stability in mouse liver microsomes assessed as intrinsic clearance in microsome measured per mg protein preincubated for 5 mins followed by NADPH addition by LC-MS/MS analysis; type: ADME; conditions: read-out: CLH
[30] = MRT (0 to t) in C57BL/6 mouse at 1 mg/kg, iv measured for 0.5 to 12 htr by LC-MS/MS analysis; type: ADME, organism-based; conditions: in vivo, time 0.5-12 hrs
[31] = Cytotoxicity against HEK293T cells assessed as cell viability at 30 uM by CCK8 assay relative to control; type: toxicity, cell-based, HEK-293T; conditions: human, read-out: Activity
[32] = Effect on mitochondrial membrane integrity in HEK293T cells at 10 uM incubated for 24 hrs by JC-1 dye based analysis; type: toxicity, cell-based; conditions: human, hek-293t
[33] = Cytotoxicity against HEK293T cells assessed as inhibition of cell viability by CCK8 assay; type: toxicity, cell-based, HEK-293T; conditions: human
HEK-293T [34] = assay: Cytotoxicity against HEK293T cells by CCK8 assay; type: toxicity, cell-based; conditions: human, dose 0.1-30 µM
HEK-293T [35] = assay: Effect on mitochondrial membrane potential in HEK293T cells at 10 uM incubated for 24 hrs by MitoTracker Red probe based analysis; type: toxicity, cell-based; conditions: human
[36] = Effect on F-actin cytoskeleton in HEK293T cells at 10 uM incubated for 24 hrs by immunofluorescence based analysis; type: toxicity, cell-based; conditions: human, hek-293t
[37] = Solubility of compound in 0.01 M PBS at pH 7.4 assessed as fold increase equilibrated for 12 hrs by UV spectrophotometry relative to BI 2536; type: physicochemical; conditions: buffer, pH 7.4, 12 h
[38] = molecular target: Voltage-gated inwardly rectifying potassium channel KCNH2 (Homo sapiens, UniProt Q12809); assay: Inhibition of hERG transfected in CHO cells; type: toxicity, cell-based
Chain of Voltage-gated inwardly rectifying potassium channel KCNH2 (Q12809 whole entry): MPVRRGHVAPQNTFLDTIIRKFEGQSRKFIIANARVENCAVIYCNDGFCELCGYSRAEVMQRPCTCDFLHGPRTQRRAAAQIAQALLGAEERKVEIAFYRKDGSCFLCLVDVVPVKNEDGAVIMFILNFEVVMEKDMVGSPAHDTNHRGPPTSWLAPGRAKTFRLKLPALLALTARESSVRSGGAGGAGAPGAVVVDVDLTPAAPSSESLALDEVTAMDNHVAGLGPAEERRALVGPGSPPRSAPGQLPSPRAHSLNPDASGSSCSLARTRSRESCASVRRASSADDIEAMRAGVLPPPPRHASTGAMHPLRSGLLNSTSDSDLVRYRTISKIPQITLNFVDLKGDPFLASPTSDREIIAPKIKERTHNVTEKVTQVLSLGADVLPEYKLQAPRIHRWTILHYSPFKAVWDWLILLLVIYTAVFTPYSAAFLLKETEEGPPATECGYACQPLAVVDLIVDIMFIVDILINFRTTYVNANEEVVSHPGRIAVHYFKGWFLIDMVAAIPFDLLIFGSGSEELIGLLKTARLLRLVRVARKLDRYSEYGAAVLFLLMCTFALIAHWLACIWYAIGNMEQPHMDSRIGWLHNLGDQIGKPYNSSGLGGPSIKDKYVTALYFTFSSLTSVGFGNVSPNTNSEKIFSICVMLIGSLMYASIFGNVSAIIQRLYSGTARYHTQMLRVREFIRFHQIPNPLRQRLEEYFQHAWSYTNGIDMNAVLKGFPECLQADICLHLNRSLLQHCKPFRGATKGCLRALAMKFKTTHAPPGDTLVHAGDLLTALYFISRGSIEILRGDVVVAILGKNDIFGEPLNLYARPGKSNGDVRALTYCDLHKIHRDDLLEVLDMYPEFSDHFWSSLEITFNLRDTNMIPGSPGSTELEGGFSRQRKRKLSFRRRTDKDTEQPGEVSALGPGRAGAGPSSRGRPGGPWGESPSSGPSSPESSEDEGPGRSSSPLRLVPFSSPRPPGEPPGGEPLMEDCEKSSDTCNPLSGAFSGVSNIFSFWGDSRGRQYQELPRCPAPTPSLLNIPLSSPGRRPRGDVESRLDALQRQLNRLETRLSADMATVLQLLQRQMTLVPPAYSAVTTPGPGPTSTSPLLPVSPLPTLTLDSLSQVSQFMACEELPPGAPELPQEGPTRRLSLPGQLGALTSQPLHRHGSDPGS

Chain of Serine/threonine-protein kinase PLK2 (Q9NYY3 whole entry): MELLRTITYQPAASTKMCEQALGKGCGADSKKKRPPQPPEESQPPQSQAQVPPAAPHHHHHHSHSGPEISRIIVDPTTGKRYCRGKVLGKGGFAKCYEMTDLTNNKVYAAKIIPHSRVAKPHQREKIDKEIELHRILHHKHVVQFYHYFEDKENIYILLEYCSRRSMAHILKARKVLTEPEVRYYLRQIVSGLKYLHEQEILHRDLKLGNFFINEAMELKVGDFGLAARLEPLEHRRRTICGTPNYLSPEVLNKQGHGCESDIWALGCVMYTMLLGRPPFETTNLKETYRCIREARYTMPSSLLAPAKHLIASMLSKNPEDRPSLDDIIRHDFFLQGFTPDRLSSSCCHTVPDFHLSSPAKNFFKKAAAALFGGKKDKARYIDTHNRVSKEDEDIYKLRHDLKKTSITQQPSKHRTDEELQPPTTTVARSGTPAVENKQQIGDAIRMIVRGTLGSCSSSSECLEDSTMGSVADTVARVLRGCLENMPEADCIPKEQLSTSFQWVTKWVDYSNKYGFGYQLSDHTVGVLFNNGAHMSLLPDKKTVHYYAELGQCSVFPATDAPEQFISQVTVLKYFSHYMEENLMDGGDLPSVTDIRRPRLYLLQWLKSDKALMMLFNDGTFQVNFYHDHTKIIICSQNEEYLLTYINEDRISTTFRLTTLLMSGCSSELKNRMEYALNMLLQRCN
Chain of Serine/threonine-protein kinase PLK3 (Q9H4B4 whole entry): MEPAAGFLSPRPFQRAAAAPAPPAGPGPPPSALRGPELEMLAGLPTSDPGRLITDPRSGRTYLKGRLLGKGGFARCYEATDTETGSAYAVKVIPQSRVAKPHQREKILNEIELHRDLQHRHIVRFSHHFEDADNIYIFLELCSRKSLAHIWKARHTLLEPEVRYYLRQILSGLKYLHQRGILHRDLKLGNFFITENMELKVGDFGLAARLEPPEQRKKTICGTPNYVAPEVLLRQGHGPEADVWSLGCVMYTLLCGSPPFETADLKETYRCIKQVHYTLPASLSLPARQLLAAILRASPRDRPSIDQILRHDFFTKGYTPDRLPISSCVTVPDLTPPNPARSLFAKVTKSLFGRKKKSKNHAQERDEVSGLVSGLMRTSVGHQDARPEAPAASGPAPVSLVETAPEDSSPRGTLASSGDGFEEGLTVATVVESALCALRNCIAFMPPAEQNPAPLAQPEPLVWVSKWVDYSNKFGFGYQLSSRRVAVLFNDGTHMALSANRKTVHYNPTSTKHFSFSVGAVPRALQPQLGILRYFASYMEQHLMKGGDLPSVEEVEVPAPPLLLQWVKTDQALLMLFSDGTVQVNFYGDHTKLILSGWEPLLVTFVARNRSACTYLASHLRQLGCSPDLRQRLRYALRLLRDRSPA
Chain of Serine/threonine-protein kinase PLK1 (P53350 whole entry): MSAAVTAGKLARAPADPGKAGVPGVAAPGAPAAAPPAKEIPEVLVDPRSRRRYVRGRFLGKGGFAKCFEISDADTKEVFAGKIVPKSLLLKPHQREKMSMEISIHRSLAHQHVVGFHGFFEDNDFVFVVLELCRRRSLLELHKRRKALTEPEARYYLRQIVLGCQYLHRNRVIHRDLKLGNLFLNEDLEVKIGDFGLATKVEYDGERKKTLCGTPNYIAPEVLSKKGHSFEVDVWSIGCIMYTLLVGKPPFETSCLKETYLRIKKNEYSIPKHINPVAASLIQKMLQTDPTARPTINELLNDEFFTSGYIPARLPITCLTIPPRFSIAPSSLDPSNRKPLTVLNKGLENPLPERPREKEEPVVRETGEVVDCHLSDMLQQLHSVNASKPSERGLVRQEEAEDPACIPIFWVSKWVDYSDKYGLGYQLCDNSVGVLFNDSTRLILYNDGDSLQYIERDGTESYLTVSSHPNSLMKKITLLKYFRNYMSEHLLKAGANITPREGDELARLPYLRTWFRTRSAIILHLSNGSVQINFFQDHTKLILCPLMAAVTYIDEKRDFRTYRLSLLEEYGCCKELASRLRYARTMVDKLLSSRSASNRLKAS

CC[C@@H]1C(=O)N(C)c2cnc(Nc3cc(N4CCN(C)CC4)cc(F)c3OC[C@H](C)O)nc2N1C1CCCC1
IC50 [1]: 3670 nM
ratio [2]: > 658
IC50 (SW-620): 18 nM
IC50 (HL-60): 54 nM
IC50 (KG-1): 588 nM
IC50 (PC-9): 1990 nM
IC50 [3]: 15 nM
IC50 (NCI-H460): 326 nM
IC50 (A549): 1540 nM
IC50 (CCRF-CEM): 63 nM
IC50 [4]: > 10000 nM
ratio [5]: 373
IC50 (K562): 7.7 nM

CC[C@@H]1C(=O)N(C)c2cnc(Nc3cc(N4CCN(C)CC4)cc(F)c3OCCO)nc2N1C1CCCC1
IC50 [1]: 3220 nM
ratio [2]: > 952
IC50 (SW-620): 6.8 nM
IC50 (HL-60): 39 nM
IC50 (KG-1): > 10000 nM
IC50 (PC-9): 82 nM
IC50 [3]: 11 nM
IC50 (NCI-H460): 76 nM
IC50 (A549): 57 nM
IC50 (CCRF-CEM): 64 nM
IC50 [4]: > 10000 nM
ratio [5]: 306
IC50 (K562): 5190 nM

CC[C@@H]1C(=O)N(C)c2cnc(Nc3ccc(C(=O)NC4CCN(C)CC4)cc3OC)nc2N1C1CCCC1 [BI-2536]
half-life [6]: 84 min
C0 [7]: 227 ng/mL
MRT last [8]: 126 min
Tmax [9]: 25.2 min
Cmax [10]: 40 ng/mL
AUC(0-t) [11]: 116 ng·h/mL
half-life [12]: 41.4 min
bioavailability [13]: 8.2%
Cmax [14]: 175 ng/mL
CLint scaled [15]: 136 mL/min/kg
clearance [16]: 143 mL/min/kg
AUC(0-inf) [17]: 96 ng·h/mL
Tmax [18]: 4.98 min
CLint scaled [19]: 30.3 mL/min/kg
microsomal CLint [20]: 24.1 µL/min/mg
CLint scaled [21]: 126 mL/min/kg
half-life [22]: 27.4 min
AUC(0-t) [23]: 89 ng·h/mL
microsomal CLint [24]: 50.6 µL/min/mg
AUC(0-inf) [25]: 117 ng·h/mL
half-life [26]: 57.4 min
half-life [27]: 40.2 min
Vd [28]: 6 L/kg
microsomal CLint [29]: 34.5 µL/min/mg
MRT last [30]: 42 min

CC[C@@H]1C(=O)N(C)c2cnc(Nc3cc(N4CCN(C)CC4)ccc3OCCCO)nc2N1C1CCCC1
viability at 30 µM [31]: 16.5%
half-life [6]: 66 min
Activity [32]: Non-toxic
C0 [7]: 753 ng/mL
MRT last [8]: 108 min
IC50 [1]: 3230 nM
Tmax [9]: 25.2 min
Cmax [10]: 201 ng/mL
IC50 [33]: 38200 nM
ratio [2]: 247
AUC(0-t) [11]: 226 ng·h/mL
Activity (HEK-293T [34]): Dose-dependent-effect
IC50 (SW-620): 217 nM
half-life [12]: 40.8 min
bioavailability [13]: 20%
Cmax [14]: 471 ng/mL
IC50 (HL-60): 53 nM
clearance [16]: 73 mL/min/kg
IC50 (KG-1): > 10000 nM
AUC(0-inf) [17]: 452 ng·h/mL
Tmax [18]: 4.98 min
IC50 (PC-9): 164 nM
IC50 [3]: 20 nM
AUC(0-t) [23]: 449 ng·h/mL
AUC(0-inf) [25]: 228 ng·h/mL
Activity (HEK-293T [35]): Non-toxic
Activity [36]: Non-toxic
fold change (FC) [37]: > 2
IC50 (NCI-H460): 32 nM
IC50 [38]: 13300 nM
IC50 (A549): 154 nM
IC50 (CCRF-CEM): 40 nM
IC50 [4]: 4940 nM
Vd [28]: 2.5 L/kg
ratio [5]: 161
MRT last [30]: 34.8 min
IC50 (K562): 0.67 nM

CN1CCN(c2ccc(OC(F)(F)F)c(Nc3ncc4c(n3)-c3c(c(C(N)=O)nn3CCO)CC4)c2)CC1 [ONVANSERTIB]
IC50 (SW-620): 18 nM
IC50 (HL-60): 89 nM
IC50 (KG-1): 8660 nM
IC50 (PC-9): 58 nM
IC50 (NCI-H460): 36 nM
IC50 (A549): 45 nM
IC50 (CCRF-CEM): 34 nM
IC50 (K562): 12 nM

CC[C@@H]1C(=O)N(C)c2cnc(Nc3cc(N4CCN(C)CC4)cc(F)c3OCCCO)nc2N1C(C)C
IC50 [1]: 9370 nM
ratio [2]: > 625
IC50 (SW-620): 83 nM
IC50 (HL-60): 77 nM
IC50 (KG-1): 342 nM
IC50 (PC-9): 250 nM
IC50 [3]: 16 nM
IC50 (NCI-H460): 95 nM
IC50 (A549): 492 nM
IC50 (CCRF-CEM): 112 nM
IC50 [4]: > 10000 nM
ratio [5]: 586
IC50 (K562): 7.7 nM

CC[C@@H]1C(=O)N(C)c2cnc(Nc3cc(N4CCN(C)CC4)cc(F)c3OCCCO)nc2N1C1CCCC1
IC50 [1]: 2000 nM
ratio [2]: 700
IC50 (SW-620): 18 nM
IC50 (HL-60): 31 nM
IC50 (KG-1): 4810 nM
IC50 (PC-9): 65 nM
IC50 [3]: 11 nM
IC50 (NCI-H460): 27 nM
IC50 (A549): 103 nM
IC50 (CCRF-CEM): 90 nM
IC50 [4]: 7900 nM
ratio [5]: 178
IC50 (K562): 1780 nM
